Laboratory results reported in patent US8962263B2, “Methods and compositions for detecting the activation state of multiple proteins in single cells” (The Board of Trustees of the Leland Stanford Junior …, priority 2001, dated 2015).

What was measured:
p44/42 MAPK = assay: intracellular phospho-p44/42 MAPK by flow cytometry in ICAM-2 treated Jurkat cells; assay type: cell-based, human; details: chemical agents 10 μM, EDTA 1 mM; mAbs titrated prior to ICAM-2
Excerpt: A) Mean fluorescent intensity values (MFI) of ICAM-2-FITC (adhesion) and mAb24-Alexa633, (LFA-1, activation) in treated Jurkat cells (as above). Control unstimulated and/or compound pretreated values were subtracted. B) Top panel: Intracellular phospho-p44/42, MAPK detection as a function of ICAM-2, dose in Jurkat cells by flow cytometry (see Material and Methods). Mean fluorescent intensity values (MFI) were plotted±standard deviation (SD). Bottom panel: ICAM-2, treated Jurkat cells were stained for intracellular phospho-p44/42, MAPK as described above. mAbs to β2, and αL, integrins (10, μg/ml, 10, minutes) were titrated prior to ICAM-2, treatment as indicated and plotted for MFI±SD. C) ICAM-2, induced p44/42, MAPK activity is blocked by β2, and αL, integrin antibodies as determined by a p44/42 MAPK kinase assay. Conditions for induction and inhibition are as described above. Recombinant active p44/42, MAPK served as an internal positive control (denoted by “+”). D) Inhibition and activation profile for intracellular phospho-p44/42, by flow cytometry in the presences of chemical agents (10, μM), EDTA (1, mM), or PMA, ionomycin and ICAM-2, stimulus (as indicated above). MFI values±SD are plotted.
(§1) Intracellular and extracellular staining was performed as described (Perez and Nolan, 2002). Intracellular probes for active kinases were made by conjugating phospho-specific antibodies to the ALEXA FLUOR® dye series as described and used in phospho-protein optimized conditions (Perez and Nolan, 2002). Kinetic analyses was performed by direct application of fixation buffer in time synchronized 96-wells maintained at 37° C. Intracellular actin and microtubule staining was performed using phalloidin-Alexa633 and taxol-Alexa546 dyes (Molecular Probes). Adhesion and clustering assays were performed using ICAM-2-FITC as described in text. LFA-1 activation was assessed by either mAb24-Alexa633 or mAb24-Alexa546 conjugate, surface stained at 37° C. Flow cytometry data are representative of 3 independent experiments of 10^6 cells/sample. 10-50,000 events were collected and manually calibrated on a FACSCalibur™ machine. Data plotted in bar graph format is expressed as geometric mean fluorescence intensity (MFI) and normalized for isotype controls. Log ratios are defined as the MFI of stimulus to the MFI of unstimulated cells. Data was analyzed using Flowjo™ software (Treestar).

NIH3T3 = assay: staurosporine induced apoptosis in ICAM-2 transduced NIH3T3 (annexin-V binding, BrdU TUNEL); assay type: cell-based, murine; details: for effect on ICAM-2 anti-apoptotic effect, other kinase inhibitors: cell type not stated, data not shown
Experimental: A) Pharmacological inhibitors of PI3K abrogate ICAM-2's anti-apoptotic. ICAM-2, or vector transduced BaF3, cells were treated with staurosporine (1, μM) with (unfilled) or without (filled) the addition of 100, nM wortmannin for 24, hours (left bar graph). Apoptosis was determined by nuclear staining and fluorescence microscopy (left bar graph) and by annexin-V binding assay (right bar graph). The proportion of apoptotic cells in each culture without staurosporine was 8%+/−2. The percentage of apoptotic cells is expressed as the mean (bar)+SD of triplicate cultures. ICAM-2, 1CAM2-AC, or vector transduced NIH3T3, were treated with staurosporine ([…]) in the presence or absence of 10, μM LY294002, for 24, hours (right bar graph). DMSO vehicle served as negative control. The percentage of apoptotic cells is expressed as the mean (bar)+/−SD of triplicate cultures. B) Confocal images of PI3K and AKT localization in ICAM-2, (top) or vector control cells (bottom). C) Confocal images of ezrin and the p85, subunit of PI3K (green) localization in ICAM-2, (top) or vector control cells (bottom).
A) The anti-apoptotic effect of ICAM-2, is both wortmannin and LY294002, sensitive. ICAM-2, or vector transduced BaF3, cells were treated with staurosporine (1, μM) with (unfilled) or without (filled) the addition of 100, nM wortmannin for 24 hours. Apoptosis was determined by nuclear staining and fluorescence microscopy (left bar graph) and by annexin-V binding assay (right bar graph). The proportion of apoptotic cells in each culture without staurosporine was 8%±2. The percentage of apoptotic cells is expressed as the mean (bar)±SD of triplicate cultures. ICAM-2, ICAM2-ΔC, or vector transduced NIH3T3, were treated with staurosporine (1, μM) in the presence or absence of 10, μM LY294002, for 24, hours. DMSO vehicle served as negative control. The percentage of apoptotic cells is expressed as the mean (bar)±SD of triplicate cultures. B) ICAM-2, expressing NIH3T3, cells are sensitive to apoptosis in the presence of PI3K inhibitor LY294002. BrdU TUNEL assay was performed in staurosporine (1, μM) or LY294002, (10, μM) treated ICAM-2, ICAM2-ΔC, and control vector transduced NIH3T3, cells. The percentage of apoptotic cells is expressed as the mean (bar)±SD of triplicate cultures.
Apoptosis was determined either by counting pyknotic nuclei, annexin-V binding by flow cytometry, or TUNEL BrdU staining by flow cytometry as indicated. Apoptosis was induced either by staurosporine (1 μm), treatment with anti-mouse Fas (5 μq/ml Santa Cruz Biotechnology (SCB), […] Fas (5 μg/ml Jo2 Biomed) or anti-human Fas (10 ng/ml CH11 Kamiya Biomedical) as indicated in appropriate experiment, IL-3 withdrawal-(24 hrs) or as indicated. For pyknolic nuclei count, NIH3T3 cells were grown on glass coverslips and assayed for apoptosis. Suspension cells were analyzed by nuclear staining with 25 μM acridine orange/25 μm ethidium bromide or 5 μg/ml Hoechst 33342 (Molecular Probes, Eugene, Oreg.). Apoptosis was identified by the presence of characteristic pyknotic nuclei as described (Jacobson and Raff, 1995). At least 5 individual fields were photographed and counted using a Zeiss axioscope fluorescence microscope. For the survival assay 10^6 NIH3T3 cells were plated in 10 cm dishes and incubated overnight at 37° C. The cells were treated with 1 μM staurosporine for 24 hours. The cells were washed and cultured for 24 hours in complete medium. The cells were trypsinized and viable cells counted following trypan blue staining. Untreated cells were counted at the time of treatment. % survival represents (number of viable cells post-treatment)/(number of viable cells pretreatment). FACS based annexin-V-FITC/PI staining was done as described (PharMingen). TUNEL assay was performed as described by manufacturer of Apoptosis BrdU kit (Promega). […]

LFA-1 [1] = assay: LFA-1 activation by mAb24-Alexa633 staining, flow cytometry; assay type: cell-based, human; details: Jurkat cells; agents 10 μM 30 min, PMA 1 μg/ml, prior to ICAM-2 10 μg/ml 30 min
Experimental: A) Confocal microscopy of actin and microtubule architecture upon ICAM-2, stimulus (10, μg/ml, 30, min) in Jurkat cells. Actin was stained by phalloidin-alexa633, and tubulin by taxol-alexa546. Inserts display enlarged cell image of representative treatment B) Flow cytometric staining for actin and microtubules as described above. C) Left: Fluorescence topography analysis of ICAM-2-FITC (1 μg/ml, time as indicated) surface distribution. Intensity color gradient depicts high and low fluorescent intensity values. Right: Confocal microscopy of ICAM-2-FITC surface binding (10 μg/ml, 30, min) and anti-β2-alexa568, (clone CTB104). D) Staining for ICAM-2-FITC surface binding (fluorescence intensity) and surface distribution (fluorescence pulse) in cytochalisin D treated Jurkat cells at 37° C. and 4° C. by flow cytometry. E) Values for ICAM-2-FITC fluorescence intensity per time-of-flight per cell as described in text. F) Flow cytometric staining for LFA-1 activation by mAb24-alexa633. Stimuli as indicated (10, μM, 30, min), PMA (1, μg/ml) prior to ICAM-2, stimulation (10, μg/ml, 30, min). Staining was performed at 37° C. G) Mean fluorescence intensity (MFI) values of mAb24-633, and ICAM-2, cluster values, computed as described above, as a function of time.
as §1

Pyk2 = assay: sICAM-2 induced Pyk2 phosphorylation (phospho-tyrosine based ELISA, chemical genetic approach); assay type: cell-based; details: phospho-tyrosine based ELISA
Excerpt: E) depicts that LFA-1, induced phosphorylation of Pyk2, and Syk is dependent on PKC. We screened for the inhibition of sICAM-2, induced Pyk2, and Syk phosphorylation by chemical inhibitors to tyrosine kinases using a phospho-tyrosine based ELISA. Pyk2, phosphorylation was abrogated in the presence of PKC inhibitors bisindolymaleimide II (BIM II) and staurosporine (STP), in addition to tyrphostin A9, a specific Pyk2, inhibitor. a Pyk2, phosphorylation was also affected by inhibitors of phospholipase Cg (neomycin), inhibitors of Syk (piceatannol), and PKC inhibitor BIM I. Syk phosphorylation was completely abolished by inhibition of Pyk2, PLCg1, and strongly affected by PKC inhibitors. Thus, both Pyk2, and Syk phosphorylations were dependent on PKC activity, while Syk phosphorylation was additionally dependent on PLCg1, and Pyk2, activity. It was not possible to assess specific PKC isozymes by this method.
A chemical genetic approach was undertaken to determine the hierarchy of PKC, Pyk2, PLCg1, and Syk activities in response to sICAM-2, stimulus by verifying phosphorylation status of each kinase in the presence of respective chemical inhibitors. Inhibition of PKC with BIM II abrogated phosphorylation of Pyk2, PLCg1, and Syk. Inhibition of PLCg1, by neomycin abrogated phosphorylation of Syk, with no inhibition observed for Pyk2. […] Thus, the upstream signaling events from LFA-1, to Raf-1, appear to involve PKC/Pyk2/PLCg1/Syk. […] We are currently pursuing these complexes in a separate study.

LFA-1 [2] = target: LFA-1 (Homo sapiens, UniProt P20701); details: cited from earlier work
Chain of LFA-1 (Homo sapiens, UniProt P20701) (P20701 26-1170): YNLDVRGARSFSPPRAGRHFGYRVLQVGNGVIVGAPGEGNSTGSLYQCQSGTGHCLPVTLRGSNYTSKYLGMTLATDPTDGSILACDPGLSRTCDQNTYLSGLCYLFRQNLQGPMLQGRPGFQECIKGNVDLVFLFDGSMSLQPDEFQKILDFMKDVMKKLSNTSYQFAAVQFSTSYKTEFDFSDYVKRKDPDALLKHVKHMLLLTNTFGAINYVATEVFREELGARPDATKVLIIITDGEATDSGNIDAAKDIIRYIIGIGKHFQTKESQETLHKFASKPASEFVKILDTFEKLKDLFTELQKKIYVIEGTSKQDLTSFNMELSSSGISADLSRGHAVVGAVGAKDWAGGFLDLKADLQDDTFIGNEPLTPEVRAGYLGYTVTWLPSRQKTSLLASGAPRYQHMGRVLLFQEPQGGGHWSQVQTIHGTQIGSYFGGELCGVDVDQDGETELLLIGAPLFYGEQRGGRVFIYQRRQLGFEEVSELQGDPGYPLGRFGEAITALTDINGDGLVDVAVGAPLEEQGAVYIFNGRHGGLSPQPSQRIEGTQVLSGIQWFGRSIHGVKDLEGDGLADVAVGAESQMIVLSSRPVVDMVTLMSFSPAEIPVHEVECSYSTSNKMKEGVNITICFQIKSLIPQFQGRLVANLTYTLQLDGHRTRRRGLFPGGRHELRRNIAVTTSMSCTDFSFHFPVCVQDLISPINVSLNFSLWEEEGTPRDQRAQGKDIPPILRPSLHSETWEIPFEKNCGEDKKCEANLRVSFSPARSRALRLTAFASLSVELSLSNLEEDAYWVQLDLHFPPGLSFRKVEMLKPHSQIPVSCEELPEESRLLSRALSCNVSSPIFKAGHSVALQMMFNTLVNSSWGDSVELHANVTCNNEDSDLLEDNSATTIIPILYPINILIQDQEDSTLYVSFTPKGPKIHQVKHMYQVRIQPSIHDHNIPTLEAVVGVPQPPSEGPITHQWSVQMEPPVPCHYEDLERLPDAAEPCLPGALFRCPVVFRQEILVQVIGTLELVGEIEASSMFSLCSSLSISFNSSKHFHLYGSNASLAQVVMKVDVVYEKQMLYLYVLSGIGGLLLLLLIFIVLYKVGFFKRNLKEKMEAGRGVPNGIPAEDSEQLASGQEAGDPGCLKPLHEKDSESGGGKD
Chain of LFA-1 (Homo sapiens, UniProt P20701) (P05107 23-769 partner): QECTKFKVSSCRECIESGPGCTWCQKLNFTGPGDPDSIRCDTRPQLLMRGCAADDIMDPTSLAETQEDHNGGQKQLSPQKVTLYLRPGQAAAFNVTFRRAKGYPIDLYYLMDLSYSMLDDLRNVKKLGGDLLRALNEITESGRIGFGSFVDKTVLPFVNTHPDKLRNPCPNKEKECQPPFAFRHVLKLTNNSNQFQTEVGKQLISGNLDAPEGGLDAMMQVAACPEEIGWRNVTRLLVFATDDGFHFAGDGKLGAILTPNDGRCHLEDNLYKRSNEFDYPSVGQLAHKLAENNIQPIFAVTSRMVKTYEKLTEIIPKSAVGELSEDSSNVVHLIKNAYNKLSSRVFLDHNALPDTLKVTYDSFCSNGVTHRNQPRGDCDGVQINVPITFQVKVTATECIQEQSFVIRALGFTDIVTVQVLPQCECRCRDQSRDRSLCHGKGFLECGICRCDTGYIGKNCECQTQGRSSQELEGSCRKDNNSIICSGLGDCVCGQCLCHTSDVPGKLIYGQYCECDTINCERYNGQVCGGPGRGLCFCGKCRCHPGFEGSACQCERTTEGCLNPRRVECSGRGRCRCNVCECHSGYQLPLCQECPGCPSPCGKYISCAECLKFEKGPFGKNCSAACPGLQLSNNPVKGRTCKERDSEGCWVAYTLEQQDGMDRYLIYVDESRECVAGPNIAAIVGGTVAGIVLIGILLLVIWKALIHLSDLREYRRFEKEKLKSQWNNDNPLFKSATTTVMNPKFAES

Row | Compound | effect on ICAM-2 induced p44/42 MAPK phosphorylation (p44/42 MAPK) | effect on ICAM-2 anti-apoptotic effect, other kinase inhibitors (NIH3T3) | LFA-1 activation (mAb24 binding) (LFA-1 [1]) | other results
1 | O=C(O)CN(CCN(CC(=O)O)CC(=O)O)CC(=O)O [EDTA] | diminished |  |  | 
2 | Cc1cc(O)c2c(c1)C(=O)c1cc(O)cc(O)c1C2=O [Emodin] | no effect |  |  | 
3 | O=S(=O)(NCCNC/C=C/c1ccc(Br)cc1)c1cccc2cnccc12 [H-89] |  | not abrogated |  | 
4 | CCCCCCCCCCCCCC(=O)O[C@@H]1[C@@H](C)[C@@]2(O)[C@@H](C=C(CO)C[C@]3(O)C(=O)C(C)=C[C@@H]23)[C@@H]2C(C)(C)[C@]12OC(C)=O [PMA, phorbol myristelated acetate] |  |  | induction | 
5 | C[S+]([O-])c1ccc(-c2nc(-c3ccncc3)c(-c3ccc(F)cc3)[nH]2)cc1 (stereo not drawn) [SB 203580] |  | not abrogated |  | 
6 | N#CC(=C(/N)Sc1ccccc1N)/C(C#N)=C(\N)Sc1ccccc1N [U0126] |  | not abrogated |  | 
7 | COC(=O)Nc1nc2cc(C(=O)c3cccs3)ccc2[nH]1 [nocodazole] | diminished |  | full activation of LFA-1 | 
8 | CN[C@@H]1C[C@H]2O[C@@](C)([C@@H]1OC)n1c3ccccc3c3c4c(c5c6ccccc6n2c5c31)C(=O)NC4 [staurosporine] |  |  |  | sICAM-2 induced Pyk2 phosphorylation (Pyk2): abrogated; ICAM-2 induced survival signal (NIH3T3; PKC isozyme inhibitors, system not specified): did not abrogate
9 | CC(=O)O[C@H]1C(=O)[C@@]2(C)[C@H]([C@H](OC(=O)c3ccccc3)[C@]3(O)C[C@H](OC(=O)[C@H](O)[C@@H](NC(=O)c4ccccc4)c4ccccc4)C(C)=C1C3(C)C)[C@]1(OC(C)=O)CO[C@@H]1C[C@@H]2O [taxol] | diminished |  | full activation of LFA-1 | 
10 | P1: synthesized peptide of ICAM-2's first Ig domain (P1, amino acids 21-42) (GSDEKVFEVHVRPKKLAVEPKG; UniProt P13598 21-42, looked up, fragment) |  |  |  | concentration inducing LFA-1 mediated adhesion (LFA-1 [2]; bulk cellular adhesion assay): 62 µM; calcium influx (LFA-1 [2]): did not induce calcium influx; induction of the active conformation of LFA-1 (LFA-1 [2]): did not induce the active conformation of LFA-1
